Experiment [1] deals with T1, HER2VC (G776delinsVC) (Homo sapiens, UniProt P04626, G776C/INS775V).
T1 construct: NCI-H1781 cells which endogenously expresses a HER2 mutant protein; endogenous in cells; host or cells: NCI-H1781
Nature of the experiment: HER2 signaling (pHER2) in NCI-H1781 cells. It counts as cell-based. The settings on record: 1.5 hr compound, 1% FBS. As for the experimental part:
(§1) In addition to the engineered cell lines, the following cell lines were used: BT474 (human breast carcinoma), N87 (human gastric carcinoma), NCI-H1781 (human lung adenocarcinoma), and A431 (human epidermoid carcinoma); all cell lines were obtained from the American Type Culture Collection (ATCC, Manassas, VA). NCI-H1781 were grown in complete RPMI 1640 (Life Technologies, Carlsbad, CA) supplemented with 15% fetal bovine serum (FBS, Life Technologies, Carlsbad, CA) and 1% Penicillin-Streptomycin (P/S, Life Technologies, Carlsbad, CA). N87 cells were grown in complete RPMI 1640 supplemented with 10% FBS and 1% P/S. BT474 and A431 cells were grown in DMEM (Life Technologies, Carlsbad, CA) supplemented with 10% FBS and 1% P/S. All cells were maintained and propagated in a humidified 5% CO2 incubator at 37° C.
(§2) HER2 signaling was assessed in BT474 and N87 cell lines which endogenously overexpress the HER2 wildtype (WT) protein, in NCI-H1781 cells which endogenously expresses a HER2 mutant protein containing a VC insertion in the kinase domain (HER2VC or G776delinsVC), and in engineered cell lines transduced to express the Her2 mutant protein containing the YVMA insertion (Hek293-HER2YVMA and BEAS2B-HER2YVMA).
(§3) BT474, N87, and NCI-H1781 were plated in 96-well tissue-culture treated plates (Corning Costar, Sigma-Aldrich) in full media and incubated overnight. Hek293-HER2YVMA and BEAS2B-HER2YVMA cells were plated in 96-well poly-D-lysine treated plates (BD Bioscience, San Jose, CA). For treatment with test compounds, the media was replaced with corresponding low serum media (1% FBS) containing test compound at 1.1, 0.37, 0.12, 0.041, 0.014, 0.005, 0.0014, 0.0005 μM or DMSO control (0.1%). Cells were incubated with compound for 1.5 hr at 37° C. After compound treatment, the media was removed and cells were lysed for 30 min on ice in complete MSD lysis buffer (prepared using MSD base lysis buffer (Meso-Scale Discovery) supplemented with cOmplete, EDTA-free Protease inhibitor cocktail (Roche), Phosphatase Inhibitor Cocktails 2 and 3 (Sigma-Aldrich), and 1 mM PMSF (Sigma-Aldrich)). Lysates were stored at −70° C. until further analysis.
(§4) HER2 signaling was evaluated using phospho (Tyr1248)/total ErbB2 whole cell lysate MSD plates (Meso-Scale Discovery, Gaithersburg, MD). The phospho HER2 signal was normalized to total HER2 for each sample; results are reported as % DMSO control. The normalized data was fitted using a sigmoidal curve analysis program (Graph Pad Prism version 6) with variable Hill slope to determine EC50 values.
(§5) The HER2 signaling results are provided in Table 4, under columns titled “BT474-pHER2 EC50”, “N87-pHER2 EC50”, and “NCI-H1781-pHER2 EC50”. Hek293-HER2YVMA ins fall under the heading “HEKYVMA-pHER2 EC50”, Ba/F3 HER2YVMA fall under the heading “Ba/F3 YVMA-pHER2 EC50” and BEAS2B-HER2YVMA fall under the heading “BEAS2B YVMA-pHER2 EC50”.

The test system of experiment [2] is NCI-H1781 cells. The experiment in a line: Cellular proliferation in NCI-H1781 cells (CellTiter Glo). It counts as cell-based, human. The settings on record: 120 h, redosed after 72 h. The method, then:
as §1
(§6) Cell proliferation in adherent cells was investigated in two HER2 amplified cell lines (BT474, N87), and a HER2VC expressing cell line (NCI-H1781). BT474, NCI-H1781, and N87 were plated in their appropriate growth media supplemented with either 10% FBS (BT474, N87) or 15% FBS (NCI-H1781) and 1% P/S in 96-well white clear-bottom tissue culture plates (Costar, Sigma-Aldrich). The starting cell densities were 3500, 5500, and 5000 cells for BT474, NCI-H1781, and N87 cells, respectively. An 8-point standard curve with varying cell densities (starting at 50000 cells and serially diluting down 2-fold) was prepared for each cell line and read 6 h after plating. Cells were allowed to attach overnight prior to compound treatment. Compound solutions were prepared by serially diluting test compounds in DMSO (Sigma-Aldrich), then diluting 500× in their corresponding serum free media. Cells were treated by adding a 1:1 volume of test compound to a final concentration of […], 0.004, 0.0014, or 0.0005 μM, in 0.1% DMSO and 5% FBS (for BT474 and N87) or 7.5% FBS (NCI-H1781). In BT474 and NCI-H1781, cell media was replaced and cells were redosed with fresh test compound solutions after 72 h. Viability was determined by CellTiter Glo (Promega, Madison, WI) after 72 h for N87 cells, and after 120 h for BT474 and […] cells. The results were converted to cell numbers using a standard curve; growth inhibition (GI50 values) were determined by Graph Pad Prism. […] The results are provided in Table 4, under columns titled “BT474-GI50”, “N87-GI50”, and “NCI-H1781-GI50”.

Experiment [3] deals with BT474 cells. Nature of the experiment: Cellular proliferation in BT474 cells (CellTiter Glo). It is filed as cell-based, human. The settings on record: 120 h, redosed after 72 h. As for the experimental part:
as §1, §6

Experiment [4] concerns N87 cells. Nature of the experiment: Cellular proliferation in N87 cells (CellTiter Glo). It is filed as cell-based, human. The settings on record: 72 h. As for the experimental part:
as §1, §6

Experiment [5] has as its target T2, HER2 wildtype (WT) protein (Homo sapiens, UniProt P04626).
T2 construct: BT474 and N87 cell lines which endogenously overexpress the HER2 wildtype (WT) protein; endogenous in cells; host or cells: BT474, N87
Nature of the experiment: HER2 signaling (pHER2 Tyr1248/total HER2 MSD) in N87 cells. It is filed as cell-based. The settings on record: 1.5 hr compound, 1% FBS. As for the experimental part: as §1, §2, §3, §4, §5

[6] abbreviates: Homo sapiens, NCI-H1781, NCI-H1781 cells.
Setting [7] is: Homo sapiens, BT-474, BT474 cells.

The structures appear in SMILES notation. Some results are limits rather than exact numbers.

T1 sequence (P04626 with tags, fused parts or gaps INS775V/G776C): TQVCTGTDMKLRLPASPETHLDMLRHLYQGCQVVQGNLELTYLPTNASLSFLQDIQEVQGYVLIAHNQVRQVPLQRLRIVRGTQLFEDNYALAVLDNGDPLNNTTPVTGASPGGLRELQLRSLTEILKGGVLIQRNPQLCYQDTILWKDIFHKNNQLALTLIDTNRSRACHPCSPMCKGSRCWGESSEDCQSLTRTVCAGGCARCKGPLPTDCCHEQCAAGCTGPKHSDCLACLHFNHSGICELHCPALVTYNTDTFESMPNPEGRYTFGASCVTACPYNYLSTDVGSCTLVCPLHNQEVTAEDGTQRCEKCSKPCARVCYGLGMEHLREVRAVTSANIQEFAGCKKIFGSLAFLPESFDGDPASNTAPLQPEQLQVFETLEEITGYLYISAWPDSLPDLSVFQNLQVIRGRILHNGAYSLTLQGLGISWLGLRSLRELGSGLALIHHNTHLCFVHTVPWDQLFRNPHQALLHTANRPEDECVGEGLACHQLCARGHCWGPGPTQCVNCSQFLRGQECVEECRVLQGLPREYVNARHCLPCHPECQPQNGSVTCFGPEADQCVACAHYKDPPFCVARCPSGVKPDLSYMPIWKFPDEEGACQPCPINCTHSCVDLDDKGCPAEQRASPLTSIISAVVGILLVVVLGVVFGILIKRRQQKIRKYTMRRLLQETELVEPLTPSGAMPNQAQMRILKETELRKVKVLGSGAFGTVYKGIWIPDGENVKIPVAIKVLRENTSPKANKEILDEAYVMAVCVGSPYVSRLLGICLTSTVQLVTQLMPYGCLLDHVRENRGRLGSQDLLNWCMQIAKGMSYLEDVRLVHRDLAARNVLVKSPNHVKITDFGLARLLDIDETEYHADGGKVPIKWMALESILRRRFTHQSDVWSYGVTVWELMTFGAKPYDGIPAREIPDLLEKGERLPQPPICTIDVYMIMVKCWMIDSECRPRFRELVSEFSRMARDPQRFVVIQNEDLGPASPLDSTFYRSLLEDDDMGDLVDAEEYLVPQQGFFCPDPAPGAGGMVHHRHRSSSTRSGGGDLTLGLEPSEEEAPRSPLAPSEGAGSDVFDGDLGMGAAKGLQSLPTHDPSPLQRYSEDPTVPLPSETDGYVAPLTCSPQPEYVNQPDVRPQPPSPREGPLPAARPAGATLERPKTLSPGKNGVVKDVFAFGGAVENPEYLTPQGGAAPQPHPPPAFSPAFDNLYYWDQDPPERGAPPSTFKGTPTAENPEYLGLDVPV
T2 sequence (P04626 23-1255): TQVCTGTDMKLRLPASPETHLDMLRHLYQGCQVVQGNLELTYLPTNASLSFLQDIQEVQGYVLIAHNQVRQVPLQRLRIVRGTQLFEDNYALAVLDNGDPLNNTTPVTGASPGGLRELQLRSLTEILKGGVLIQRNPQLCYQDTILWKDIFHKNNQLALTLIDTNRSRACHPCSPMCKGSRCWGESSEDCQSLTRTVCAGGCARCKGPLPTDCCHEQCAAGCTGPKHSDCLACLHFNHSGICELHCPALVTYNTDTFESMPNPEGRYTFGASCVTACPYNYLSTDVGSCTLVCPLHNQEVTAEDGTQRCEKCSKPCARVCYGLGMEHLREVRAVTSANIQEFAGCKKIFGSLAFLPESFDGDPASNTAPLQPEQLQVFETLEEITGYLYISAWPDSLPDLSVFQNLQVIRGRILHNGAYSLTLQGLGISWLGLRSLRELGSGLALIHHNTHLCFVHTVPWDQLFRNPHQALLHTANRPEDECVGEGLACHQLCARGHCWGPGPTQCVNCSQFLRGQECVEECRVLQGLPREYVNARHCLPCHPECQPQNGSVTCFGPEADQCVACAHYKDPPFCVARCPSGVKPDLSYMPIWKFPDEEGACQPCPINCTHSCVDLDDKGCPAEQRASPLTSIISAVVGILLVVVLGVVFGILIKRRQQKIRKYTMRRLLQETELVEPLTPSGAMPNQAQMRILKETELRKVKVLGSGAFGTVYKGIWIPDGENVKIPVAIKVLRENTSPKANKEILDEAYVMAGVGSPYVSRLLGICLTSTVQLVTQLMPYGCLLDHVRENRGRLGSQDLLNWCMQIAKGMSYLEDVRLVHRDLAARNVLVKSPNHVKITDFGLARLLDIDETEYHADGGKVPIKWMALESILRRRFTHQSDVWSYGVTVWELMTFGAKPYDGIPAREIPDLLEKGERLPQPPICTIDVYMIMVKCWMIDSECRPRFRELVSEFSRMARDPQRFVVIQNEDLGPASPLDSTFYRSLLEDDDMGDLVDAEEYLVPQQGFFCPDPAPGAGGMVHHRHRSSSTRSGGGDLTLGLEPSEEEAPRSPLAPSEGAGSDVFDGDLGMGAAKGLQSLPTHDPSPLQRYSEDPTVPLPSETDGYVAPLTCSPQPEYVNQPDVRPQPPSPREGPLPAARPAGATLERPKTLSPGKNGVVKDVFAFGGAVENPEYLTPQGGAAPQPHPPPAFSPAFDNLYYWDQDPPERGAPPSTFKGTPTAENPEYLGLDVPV

`COc1ccc(Oc2ccc(Nc3ncnc4sc5c(c34)C(C)CN(C(=O)/C=C/CN(C)C)C5)cc2C)cn1` (stereo not drawn) [Compound 152, (E)-4-(dimethylamino)-1-(4-((4-((6-methoxypyridin-3-yl)oxy)-3-methylphenyl)amino)-5-methyl-5,8-dihydropyrido[4′,3′:4,5]thieno[2,3-d]pyrimidin-7(6H)-yl)but-2-en-1-one]: the EC50 in experiment [1] was less than 100 nM. Further, the concentration for 50% growth inhibition (GI50) in experiment [2] (setting [6]), in experiment [3] (setting [7]) and in experiment [4] (Homo sapiens) was less than 100 nM throughout.

On to `Cc1ccc(Oc2ccc(Nc3ncnc4sc5c(c34)CCN(C(=O)/C=C/CN3CC[C@H](F)C3)C5)cc2C)cn1` [Compound 124], for which the 50% growth inhibitory concentration (GI50) in experiment [2] (setting [6]), in experiment [3] (setting [7]) and in experiment [4] (Homo sapiens) was less than 100 nM throughout.

Regarding `Cc1ccc(Oc2ccc(Nc3ncnc4sc5c(c34)CCN(C(=O)/C=C/CN3CC4CC(C3)O4)C5)cc2C)cn1` [Compound 15], the EC50 in experiment [5] is less than 100 nM.

In the case of `Cc1ccc(Oc2ccc(Nc3ncnc4sc5c(c34)CCN(C(=O)/C=C/CN3CC4CCC3C4)C5)cc2C)cn1` (stereo not drawn) [Compound 14], in experiment [5], the EC50 is less than 100 nM.

On to `COc1cc(Nc2ncnc3sc4c(c23)CCN(C(=O)/C=C/CN(C)C)C4)ccc1Oc1ccccc1` [Compound 7, (E)-4-(dimethylamino)-1-(4-((3-methoxy-4-phenoxyphenyl)amino)-5,8-dihydropyrido[4′,3′:4,5]thieno[2,3-d]pyrimidin-7(6H)-yl)but-2-en-1-one], for which the EC50 in experiment [1] is less than 100 nM.

For the compound `Cc1ccc(Oc2ccc(Nc3ncnc4sc5c(c34)CCN(C(=O)/C=C/CN3CCC(O)C(C)(C)C3)C5)cc2C)cn1` (stereo not drawn) [Compound 114], the concentration for 50% growth inhibition (GI50) in experiment [2] (setting [6]), in experiment [3] (setting [7]) and in experiment [4] (Homo sapiens) was less than 100 nM each time.

In experiment [5], `Cc1ccc(Oc2ccc(Nc3ncnc4sc5c(c34)CC(C)N(C(=O)C=CCN(C)C)C5C)cc2C)cn1` (single isomer, unassigned) [Compound 162] displayed a 50% effective concentration (EC50) of 350 to 1000 nM.

In experiment [1], `C=CC(=O)N1CCc2c(sc3ncnc(Nc4ccc(Oc5cccnc5)c(Cl)c4)c23)C1` [Compound 6, 1-(4-((3-chloro-4-(pyridin-3-yloxy)phenyl)amino)-5,8-dihydropyrido[4′,3′:4,5]thieno[2,3-d]pyrimidin-7(6H)-yl)prop-2-en-1-one] showed an EC50 of less than 100 nM.

For `COc1ccc(Oc2ccc(Nc3ncnc4sc5c(c34)CCN(C(=O)/C=C/CN3CCOCC3)C5)cc2C)cn1` [Compound 164], in experiment [1], the EC50 is less than 100 nM. For the same compound, the concentration for 50% growth inhibition (GI50) in experiment [2] (setting [6]) was 100 to 350 nM; in experiment [3] (setting [7]), less than 100 nM; in experiment [4] (Homo sapiens), less than 100 nM.

In turn, `Cc1ccc(Oc2ccc(Nc3ncnc4sc5c(c34)CN(C(=O)C=CCN(C)C)C5C)cc2C)cn1` (single isomer, unassigned) [Compound 170] gave a concentration giving a half-maximal response (EC50) in experiment [1] of 100 to 350 nM. Moreover, the results for the 50% growth inhibitory concentration (GI50) in experiment [2] (NCI-H1781 cells), in experiment [3] (BT474 cells) and in experiment [4] were 350 to 1000 nM, 100 to 350 nM and 100 to 350 nM, respectively.

For `Cc1cc(Nc2ncnc3sc4c(c23)CCN(C(=O)/C=C/CN(C)C)C4)ccc1Oc1ccc(N(C)C)nc1` [Compound 158, (E)-4-(dimethylamino)-1-(4-((4-((6-(dimethylamino)pyridin-3-yl)oxy)-3-methylphenyl)amino)-5,8-dihydropyrido[4′,3′:4,5]thieno[2,3-d]pyrimidin-7(6H)-yl)but-2-en-1-one], the EC50 in experiment [1] is less than 100 nM. In addition, the GI50 was less than 100 nM in experiment [2] (Homo sapiens, NCI-H1781 cells); less than 100 nM in experiment [3] (setting [7]); less than 100 nM in experiment [4] (Homo sapiens).

Regarding `Cc1ccc(Oc2ccc(Nc3ncnc4sc5c(c34)CCN(C(=O)/C=C/CN3CC4CC4(CO)C3)C5)cc2C)cn1` (stereo not drawn) [Compound 118], the GI50 in experiment [2] (setting [6]), in experiment [3] (setting [7]) and in experiment [4] (Homo sapiens) was less than 100 nM each time.

Regarding `Cc1ccc(Oc2ccc(Nc3ncnc4sc5c(c34)CN(C(=O)/C=C/CN(C)C)CC5)cc2C)cn1` [Compound 108, (E)-4-(Dimethylamino)-1-(4-((3-methyl-4-((6-methylpyridin-3-yl)oxy)phenyl)amino)-7,8-dihydropyrido[3′,4′:4,5]thieno[2,3-d]pyrimidin-6(5H)-yl)but-2-en-1-one], the GI50 in experiment [2] (setting [6]), in experiment [3] (setting [7]) and in experiment [4] (Homo sapiens) was less than 100 nM throughout.

For the compound `Cc1nc2cc(Oc3ccc(Nc4ncnc5sc6c(c45)CCN(C(=O)/C=C/CN(C)C)C6)cc3C)ccn2n1` [Compound 127, (E)-4-(dimethylamino)-1-(4-((3-methyl-4-((2-methyl-[1,2,4]triazolo[1,5-a]pyridin-7-yl)oxy)phenyl)amino)-5,6-dihydropyrido[4′,3′:4,5]thieno[2,3-d]pyrimidin-7(8H)-yl)but-2-en-1-one], the GI50 in experiment [2] (Homo sapiens, NCI-H1781 cells) is 100 to 350 nM; in experiment [3] (setting [7]), less than 100 nM; in experiment [4] (Homo sapiens) it was less than 100 nM.

`Cc1ccc(Oc2ccc(Nc3ncnc4sc5c(c34)C(C)CN(C(=O)/C=C/CN3CCOCC3)C5)cc2C)cn1` (stereo not drawn) [Compound 174, (E)-1-(5-Methyl-4-((3-methyl-4-((6-methylpyridin-3-yl)oxy)phenyl)amino)-5,6-dihydropyrido[4′,3′:4,5]thieno[2,3-d]pyrimidin-7(8H)-yl)-4-morpholinobut-2-en-1-one] yielded a concentration giving a half-maximal response (EC50) in experiment [1] of less than 100 nM. Moreover, the concentration for 50% growth inhibition (GI50) in experiment [2] (setting [6]) is 100 to 350 nM; in experiment [4] (Homo sapiens), less than 100 nM.

For `Cc1cc(Nc2ncnc3sc4c(c23)CCN(C(=O)/C=C/CN(C)C)C4)ccc1Oc1ccn2ccnc2c1` [Compound 126, (E)-4-(dimethylamino)-1-(4-((4-(imidazo[1,2-a]pyridin-7-yloxy)-3-methylphenyl)amino)-5,8-dihydropyrido[4′,3′:4,5]thieno[2,3-d]pyrimidin-7(6H)-yl)but-2-en-1-one], the 50% growth inhibitory concentration (GI50) in experiment [2] (Homo sapiens, NCI-H1781 cells) was less than 100 nM; in experiment [3] (setting [7]), less than 100 nM; in experiment [4] (Homo sapiens), less than 100 nM.

As for `Cc1cc(Nc2ncnc3sc4c(c23)CN(C(=O)/C=C/CN(C)C)C4)ccc1Oc1ccn2ncnc2c1` [Compound 130, (E)-1-(4-((4-([1,2,4]Triazolo[1,5-a]pyridin-7-yloxy)-3-methylphenyl)amino)-5H-pyrrolo[3′,4′:4,5]thieno[2,3-d]pyrimidin-6(7H)-yl)-4-(dimethylamino)but-2-en-1-one], the GI50 in experiment [2] (setting [6]), in experiment [3] (setting [7]) and in experiment [4] (Homo sapiens) was less than 100 nM each time.
